Substitutions are numbered along the chain they refer to.
Experiments:
[1] = biological target: T1, M5-ELY receptor construct (Homo sapiens, UniProt P08912, K175E/P179L/Q184Y); experiment: [3H]NMS dissociation rate, M5-ELY; format: binding
T1 construct: expressed in transfected cells; host or cells: Sf9 cells, recombinant baculovirus
T1 sequence (P08912 1-532 K175E/P179L/Q184Y): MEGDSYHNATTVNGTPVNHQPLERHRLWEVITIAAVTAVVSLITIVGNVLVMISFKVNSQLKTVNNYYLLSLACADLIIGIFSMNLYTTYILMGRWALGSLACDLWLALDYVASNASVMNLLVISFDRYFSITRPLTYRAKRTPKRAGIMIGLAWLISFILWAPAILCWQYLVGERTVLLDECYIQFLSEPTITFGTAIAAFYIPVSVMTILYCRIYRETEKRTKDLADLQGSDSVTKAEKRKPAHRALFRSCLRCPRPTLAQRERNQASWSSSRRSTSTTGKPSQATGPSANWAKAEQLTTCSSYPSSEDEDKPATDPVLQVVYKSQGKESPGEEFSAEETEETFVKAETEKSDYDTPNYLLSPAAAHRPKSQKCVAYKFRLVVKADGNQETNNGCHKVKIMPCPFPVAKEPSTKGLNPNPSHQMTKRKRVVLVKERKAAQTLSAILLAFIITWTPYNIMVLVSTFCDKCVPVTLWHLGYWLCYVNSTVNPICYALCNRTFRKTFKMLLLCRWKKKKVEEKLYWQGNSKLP
Method: (§1) The Infected cells from monolayer culture were harvested in phosphate-buffered saline solution, centrifuged 700× g and stored as pellets at −70 °C until use. For binding experiments the cells were resuspended in binding buffer (100 mM NaCl, 20 mM HEPES, 10 mM MgCl2, 1 mM EDTA, pH adjusted to 7.4) and homogenized with an Ultra-Turrax homogenizer. […] Atropine (10 μM) was used to determine nonspecific binding. […] Following this, dissociation was started by addition of 10 μM atropine with or without MT7. Aliquots were removed at regular intervals from 0 to 100 min. In testing the reversibility of MT7 binding, cell homogenates were first incubated with toxin in test tubes for 45 min, thereafter centrifuged 12,000 × g for 30 min and then resuspended in fresh buffer. […] All reactions were terminated by rapid filtration through prewashed GF/B filters followed by five washes with cold buffer containing 180 mM NaCl, 25 mM MgCl2, and 20 mM HEPES, pH 7.4, in a microplate harvester. Radioactivity on filters was determined in a TopCount microplate scintillation counter (PerkinElmer, Waltham, MA).

[2] = biological target: T2, M5-ELYE receptor construct (Homo sapiens, UniProt P08912, K175E/P179L/Q184Y/V474E); experiment: [3H]NMS dissociation rate, M5-ELYE; format: binding
T2 construct: expressed in transfected cells; host or cells: Sf9 cells, recombinant baculovirus
T2 sequence (P08912 1-532 K175E/P179L/Q184Y/V474E): T1 sequence (P08912 1-532 K175E/P179L/Q184Y) with V474E
Method: as §1

## C[N+]1(C)[C@@H]2CC(OC(=O)[C@H](CO)c3ccccc3)C[C@H]1[C@@H]1O[C@@H]12 (some centres unmarked) [[^3H]NMS, [^3H]-N-methylscopolamine]
[1]
  [3H]NMS dissociation rate, control: 0.113 min⁻¹
[2]
  [3H]NMS dissociation rate, control: 0.147 min⁻¹

Reference: PMC3237002, “Molecular Conversion of Muscarinic Acetylcholine Receptor M5 to Muscarinic Toxin 7 (MT7)-Binding Protein” (Toxins, 2011)
